Experimental data as given in patent US20190292167A1, “HETEROAROMATIC COMPOUNDS USEFUL FOR THE TREATMENT OF PROLIFERATIVE DISEASES” (Syros Pharmaceuticals, Inc., priority 2013, published 2019).
Where a name gives a salt, the structure may show the parent alone.

What was measured:
MCF-10A = assay: Inhibition of cell proliferation, CellTiter-Glo, 72 hour; type: cell-based; details: Homo sapiens, Breast Cancer/Breast cell line, read-out: Inhibition of Proliferation MCF10A
Jurkat = assay: as above; type: cell-based; details: Homo sapiens, Jurkat, 72 h, Blood cancer cell line; 72 hour; read-out: Inhibition of Proliferation of Jurkat Cells
Description: The following cancer cell lines were tested with the media conditions indicated: […]

SAOS = assay: as above; type: cell-based; details: Osteosarcoma cell line
CDK7 = target: T1, CDK7 (Homo sapiens, UniProt P50613); assay: Adapta kinase assay (Life Technologies) against CDK7, co-factors cyclin H and MNAT1; type: biochemical; details: read-out: CDK7 Inhibition
T1 construct: purchased Life Technologies (Adapta kinase assay service)

RS4-11 = assay: Inhibition of cell proliferation, CellTiter-Glo, 72 hour; type: cell-based; details: Homo sapiens, Blood cancer cell line
T47D = assay: as above; type: cell-based; details: Homo sapiens, Breast Cancer/Breast cell line
MCF-7 = assay: as above; type: cell-based; details: Homo sapiens, MCF7, Breast Cancer/Breast cell line
SKBR-3 = assay: as above; type: cell-based; details: Homo sapiens, SK-BR-3, Breast Cancer/Breast cell line, read-out: Inhibition of Proliferation SKBR3
MDA-MB231 = assay: as above; type: cell-based; details: Homo sapiens, MDA-MB-231, Breast Cancer/Breast cell line
Hs863T = assay: as above; type: cell-based; details: Ewing's Sarcoma cell line
Description: (§1) • Hs863T—DMEM (4 mM L-Glut, 4.5 g/L Glucose, 1 mM pyruvate, 1.5 g/l bicarb)+10% FBS • Hs822T—DMEM (4 mM L-Glut, 4.5 g/L Glucose, 1 mM pyruvate, 1.5 g/l bicarb)+10% FBS • A673—DMEM (4 mM L-Glut, 4.5 g/L Glucose, 1 mM pyruvate, 1.5 g/l bicarb)+10% FBS • SKES-1—McCoy's 5a Medium Modified (modified—1.5 mM L-glut, 2.2 g/L bicarb)+15% FBS • RD-ES—RPMI 1640+15% FBS.

Hs822T = assay: as above; type: cell-based; details: Ewing's Sarcoma cell line
Description: as §1

A673 = assay: as above; type: cell-based; details: Homo sapiens, Ewing's Sarcoma cell line
Description: as §1

SKES-1 = assay: as above; type: cell-based; details: Homo sapiens, SK-ES1, Ewing's Sarcoma cell line, read-out: Inhibition of Proliferation SK-ES
Description: as §1

RD-ES = assay: as above; type: cell-based; details: Ewing's Sarcoma cell line
Description: as §1

hTERT-HME1 = assay: as above; type: cell-based; details: Breast Cancer/Breast cell line
MNNG-Hos Cl#5 = assay: as above; type: cell-based; details: Osteosarcoma cell line
THP-1 = assay: as above; type: cell-based; details: Homo sapiens, Blood cancer cell line
MV4-11 = assay: as above; type: cell-based; details: Homo sapiens, Blood cancer cell line
143B = assay: as above; type: cell-based; details: Homo sapiens, Osteosarcoma cell line
HL-60 = assay: as above; type: cell-based; details: Homo sapiens, Blood cancer cell line, read-out: Inhibition of Proliferation HL60

T1 sequence (P50613 whole entry): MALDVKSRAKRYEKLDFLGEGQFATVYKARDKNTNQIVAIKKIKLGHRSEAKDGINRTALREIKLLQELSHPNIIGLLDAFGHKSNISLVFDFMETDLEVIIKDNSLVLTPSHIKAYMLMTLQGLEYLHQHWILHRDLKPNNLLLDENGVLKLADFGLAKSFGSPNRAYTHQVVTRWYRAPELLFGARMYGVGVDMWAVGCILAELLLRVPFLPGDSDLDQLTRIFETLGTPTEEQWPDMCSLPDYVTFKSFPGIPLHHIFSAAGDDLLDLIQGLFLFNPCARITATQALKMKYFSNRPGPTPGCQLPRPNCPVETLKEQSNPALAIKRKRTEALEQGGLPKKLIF
T1 sequence (P51946 whole entry partner): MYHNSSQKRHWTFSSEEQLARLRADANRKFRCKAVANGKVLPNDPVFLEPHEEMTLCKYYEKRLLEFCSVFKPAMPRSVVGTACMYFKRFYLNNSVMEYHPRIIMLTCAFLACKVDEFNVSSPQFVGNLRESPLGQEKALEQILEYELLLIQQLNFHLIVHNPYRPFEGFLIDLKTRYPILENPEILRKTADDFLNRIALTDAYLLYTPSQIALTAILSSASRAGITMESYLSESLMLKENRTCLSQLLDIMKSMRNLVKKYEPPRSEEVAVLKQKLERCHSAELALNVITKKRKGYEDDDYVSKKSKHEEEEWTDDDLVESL
T1 sequence (P51948 whole entry partner): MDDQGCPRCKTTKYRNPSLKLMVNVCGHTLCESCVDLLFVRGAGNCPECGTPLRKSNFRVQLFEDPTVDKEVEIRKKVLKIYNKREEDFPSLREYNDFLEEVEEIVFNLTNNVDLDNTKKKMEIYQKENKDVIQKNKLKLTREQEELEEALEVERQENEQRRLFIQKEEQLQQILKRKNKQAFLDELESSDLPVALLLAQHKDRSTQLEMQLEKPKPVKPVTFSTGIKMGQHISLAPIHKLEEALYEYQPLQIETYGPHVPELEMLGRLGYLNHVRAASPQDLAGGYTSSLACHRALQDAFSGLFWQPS

IC50 (Jurkat)	IC50 (CDK7)	IC50 (RS4-11)	IC50 (T47D)	IC50 (MCF-7)	IC50 (SKBR-3)	IC50 (MDA-MB231)	IC50 (SKES-1)	IC50 (THP-1)	IC50 (MV4-11)	IC50 (HL-60)	SMILES	IC50 (MCF-10A)	IC50 (SAOS)	IC50 (Hs863T)	IC50 (Hs822T)	IC50 (A673)	IC50 (RD-ES)	IC50 (hTERT-HME1)	IC50 (MNNG-Hos Cl#5)	IC50 (143B)
< 500 nM	< 100 nM	< 500 nM	> 5000 nM	500 to 5000 nM	> 5000 nM	< 500 nM	< 500 nM	< 500 nM	< 500 nM	< 500 nM	CN(C)C/C=C/C(=O)Nc1ccc(C(=O)N2CC[C@@H](Nc3ncc(Cl)c(-c4c[nH]c5ccccc45)n3)C2)cc1 [Compound 104, (E)-N-(4-((R)-3-(5-chloro-4-(1H-indol-3-yl)pyrimidin-2-ylamino)pyrrolidine-1-carbonyl)phenyl)-4-(dimethylamino)but-2-enamide.TFA]	< 500 nM	< 500 nM	> 5000 nM	500 to 5000 nM	< 500 nM	< 500 nM	< 500 nM	> 5000 nM	> 5000 nM
500 to 5000 nM	100 to 1000 nM	500 to 5000 nM	> 5000 nM	> 5000 nM	> 5000 nM	> 5000 nM	500 to 5000 nM	> 5000 nM	< 500 nM	> 5000 nM	CN(C)C/C=C/C(=O)Nc1ccc(C(=O)N2CC[C@H](Nc3ncc(Cl)c(-c4c[nH]c5ccccc45)n3)C2)cc1 [Compound 101, (E)-N-(4-((S)-3-(5-chloro-4-(1H-indol-3-yl)pyrimidin-2-ylamino)pyrrolidine-1-carbonyl)phenyl)-4-(dimethylamino)but-2-enamide]	500 to 5000 nM	> 5000 nM	> 5000 nM	> 5000 nM	500 to 5000 nM	> 5000 nM	500 to 5000 nM	> 5000 nM	> 5000 nM
< 500 nM	< 100 nM	< 500 nM	> 5000 nM	< 500 nM	> 5000 nM	< 500 nM	< 500 nM	< 500 nM	< 500 nM	< 500 nM	CN(C)C/C=C/C(=O)Nc1ccc(C(=O)N2CCC(Nc3ncc(Cl)c(-c4c[nH]c5ccccc45)n3)CC2)cc1 [Compound 100, (E)-N-(4-(4-(5-chloro-4-(1H-indol-3-yl)pyrimidin-2-ylamino)piperidine-1-carbonyl)phenyl)-4-(dimethylamino)but-2-enamide]	< 500 nM	< 500 nM	> 5000 nM	500 to 5000 nM	< 500 nM	< 500 nM	< 500 nM	500 to 5000 nM	> 5000 nM
< 500 nM	< 100 nM	< 500 nM	> 5000 nM	> 5000 nM	> 5000 nM	< 500 nM	< 500 nM	< 500 nM	< 500 nM	< 500 nM	CN(C)C/C=C/C(=O)Nc1ccc(C(=O)N2CC[C@@H](Nc3ncc(C#N)c(-c4c[nH]c5ccccc45)n3)C2)cc1 [Compound 103, (E)-N-(4-((R)-3-(5-cyano-4-(1H-indol-3-yl)pyrimidin-2-ylamino)pyrrolidine-1-carbonyl)phenyl)-4-(dimethylamino)but-2-enamide]	< 500 nM	< 500 nM	> 5000 nM	> 5000 nM	< 500 nM	< 500 nM	< 500 nM	500 to 5000 nM	> 5000 nM
< 500 nM	< 100 nM	< 500 nM	> 5000 nM	< 500 nM	> 5000 nM	< 500 nM	< 500 nM	< 500 nM	< 500 nM	< 500 nM	CN(C)C/C=C/C(=O)Nc1ccc(C(=O)N2CCC(Nc3ncc(C#N)c(-c4c[nH]c5ccccc45)n3)CC2)cc1 [Compound 102, (E)-N-(4-(4-(5-cyano-4-(1H-indol-3-yl)pyrimidin-2-ylamino)piperidine-1-carbonyl)phenyl)-4-(dimethylamino)but-2-enamide]	< 500 nM	< 500 nM	> 5000 nM	500 to 5000 nM	< 500 nM	< 500 nM	< 500 nM	> 5000 nM	> 5000 nM
